Assay results as given in article PMC7247818, “Demonstration of Binding Induced Structural Plasticity in a SH2 Domain” (Frontiers in Molecular Biosciences, 2020).
Where a SMILES comes first, the peptide text is derived from it.

Tests used:
Conditions in all cases: 10°C
[1] = biological target: T1, N-SH2 domain of PI3K, V81A variant (Homo sapiens, UniProt P27986, V402A); assay: Stopped-flow binding kinetics, N-SH2 V81A
T1 construct: made in house
Procedure: (§1) N-SH2 wild-type and all the site-directed variants were expressed and purified as described previously ([Visconti et al., 2019]). All the mutants were obtained using a QuickChange Lightning Site-Directed Mutagenesis kit (Agilent technologies), accordingly to manufacturer instructions. Peptides with sequence TNSEDNpYVPMNPG mimicking wild-type Gab2 and TNSEDNpYVPANPG mimicking the M457A variant of Gab2 were purchased from GenScript Biotech Corporation.
(§2) Binding kinetics experiments were performed using a single-mixing SX-18 stopped-flow instrument (Applied Photophysics); all binding experiments were conducted in 50 mM Hepes pH 7.4 300 mM NaCl at 10°C. Excitation was at 280 nm and emission was collected using a […] cut-off glass filter. Pseudo-first order binding experiments were performed mixing a constant concentration of dansylated Gab2_448–460 and Gab2_448–460 M457A (1 μM) vs. N-SH2 wt and its mutants at concentrations ranging from […]. For each N-SH2 concentration, usually 5 individual traces were averaged and in all cases the fluorescence time courses obtained was satisfactorily fitted by using a single exponential equation.
(§3) One of the aims of this study is to depict the molecular details of the interaction between the N-SH2 domain of PI3K and Gab2. A powerful strategy to achieve this goal relies on perturbing the system by producing conservative site-directed variants while monitoring the effect of mutations on the association and dissociation rate constants between the interacting partners (kon and koff respectively). Thus, we designed and successfully produced 21 site-directed variants of the N-SH2 domain and challenged them vs. a peptide mimicking the region of Gab2 ranging from residue 448–460 (Gab2_448–460), containing the pY-X-X-M motif that is specifically recognized by the N-SH2 domain ([Waksman et al., 1992]; [Songyang et al., 1993]). The choise of mutations was designed in analogy to phi-value analysis methodology in protein folding studies ([Fersht and Sato, 2004]). […] To monitor binding by fluorescence, a dansyl group was added at the N-terminus of the peptide. The binding reaction was monitored by stopped-flow experiments following the change in FRET signal, taking advantage of the two Trp residues on the N-SH2 domain in positions 12 and 14 as fluorescence donor and the dansyl group on Gab2_448–460 as acceptor. The experiments were performed in pseudo-first order conditions with Gab2_448–460 at fixed concentration of 1 μM rapidly mixed vs. large excess of N-SH2 wt and its variants, ranging from 4 to 14 μM, in buffer Hepes 50 mM, NaCl 300 mM, pH 7.4, at 10°C.
(§4) with kon being the slope of the line and koff the intercept with the y-axis. Since indirect calculation of koff obtained by extrapolation is associated with high experimental error, we performed displacement experiments to directly measure koff by challenging a pre-incubated complex of dansylated Gab2_448–460 and N-SH2 domain both at the concentration of 1 μM vs. a large excess of non-dansylated Gab2_448–460 (50 μM). Kinetic parameters extracted from data together with the calculated changes in activation and equilibrium free energies are reported in Table 1. Analysis of kinetic data highlights that T48S, L51A, and L59A variations cause a detectable decrease of the affinity of the domain for Gab2_448–460 of ∼10-fold, affecting both the kon and koff. […] Since L99 residue is part of the binding pocket, this dramatic effect on the binding affinity is expected.
(§5) SH2 domains bind ligands with a phosphorylated tyrosine in their sequence. The N-SH2 domain of PI3K is known to recognize a specific consensus sequences that present a methionine in position +3 in respect to the phosphotyrosine (M457 in Gab2). […]

[2] = biological target: T2, N-SH2 domain of PI3K, V101A variant (Homo sapiens, UniProt P27986, V422A); assay: Stopped-flow binding kinetics, N-SH2 V101A
T2 construct: made in house
T2 sequence (P27986 333-428 V422A): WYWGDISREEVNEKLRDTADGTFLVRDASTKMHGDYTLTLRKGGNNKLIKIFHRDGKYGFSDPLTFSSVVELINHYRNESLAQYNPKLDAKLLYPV
Procedure: as §1, §2, §3, §4, §5

[3] = biological target: T3, N-SH2 domain of PI3K, L51A variant (Homo sapiens, UniProt P27986, L372A); assay: Stopped-flow binding kinetics, N-SH2 L51A
T3 construct: made in house
T3 sequence (P27986 333-428 L372A): as the sequence (P27986 333-428 V422A) above, with L40A, A90V counted along it
Procedure: as §1, §2, §3, §4, §5

[4] = biological target: T4, N-SH2 domain of PI3K, V80A variant (Homo sapiens, UniProt P27986, V401A); assay: Stopped-flow binding kinetics, N-SH2 V80A
T4 construct: made in house
T4 sequence (P27986 333-428 V401A): as the sequence (P27986 333-428 V422A) above, with V69A, A90V counted along it
Procedure: as §1, §2, §3, §4, §5

[5] = biological target: T5, N-SH2 domain of PI3K, T29S variant (Homo sapiens, UniProt P27986, T350S); assay: Stopped-flow binding kinetics, N-SH2 T29S
T5 construct: made in house
T5 sequence (P27986 333-428 T350S): as the sequence (P27986 333-428 V422A) above, with T18S, A90V counted along it
Procedure: as §1, §2, §3, §4, §5

[6] = biological target: T6, N-SH2 domain of PI3K, T33S variant (Homo sapiens, UniProt P27986, T354S); assay: Stopped-flow binding kinetics, N-SH2 T33S
T6 construct: made in house
T6 sequence (P27986 333-428 T354S): as the sequence (P27986 333-428 V422A) above, with T22S, A90V counted along it
Procedure: as §1, §2, §3, §4, §5

[7] = biological target: T7, N-SH2 domain of PI3K, L104A variant (Homo sapiens, UniProt P27986, L425A); assay: Stopped-flow binding kinetics, N-SH2 L104A
T7 construct: made in house
T7 sequence (P27986 333-428 L425A): as the sequence (P27986 333-428 V422A) above, with A90V, L93A counted along it
Procedure: as §1, §2, §3, §4, §5

[8] = biological target: T8, N-SH2 domain of PI3K, I60V variant (Homo sapiens, UniProt P27986, I381V); assay: Stopped-flow binding kinetics, N-SH2 I60V
T8 construct: made in house
T8 sequence (P27986 333-428 I381V): as the sequence (P27986 333-428 V422A) above, with I49V, A90V counted along it
Procedure: as §1, §2, §3, §4, §5

[9] = biological target: T9, N-SH2 domain of PI3K, P74A variant (Homo sapiens, UniProt P27986, P395A); assay: Stopped-flow binding kinetics, N-SH2 P74A
T9 construct: made in house
T9 sequence (P27986 333-428 P395A): as the sequence (P27986 333-428 V422A) above, with P63A, A90V counted along it
Procedure: as §1, §2, §3, §4, §5

[10] = displacement experiment, pH 7.4, 300 mM NaCl
[11] = stopped-flow FRET, 1 μM dansylated peptide, 50 mM Hepes pH 7.4, 300 mM NaCl
[12] = stopped-flow kinetics, pH 7.4, 300 mM NaCl

T1 sequence (P27986 333-428 V402A): as the sequence (P27986 333-428 V422A) above, with V70A, A90V counted along it

In the case of CSCC[C@H](NC(=O)[C@@H]1CCCN1C(=O)[C@@H](NC(=O)[C@H](Cc1ccc(OP(=O)(O)O)cc1)NC(=O)[C@H](CC(N)=O)NC(=O)[C@H](CC(=O)O)NC(=O)[C@H](CCC(=O)O)NC(=O)[C@H](CO)NC(=O)[C@H](CC(N)=O)NC(=O)[C@@H](N)[C@@H](C)O)C(C)C)C(=O)N[C@@H](CC(N)=O)C(=O)N1CCC[C@H]1C(=O)NCC(=O)O [Gab2_448–460] (HELM PEPTIDE1{T.N.S.E.D.N.[O=C([C@H](Cc1ccc(OP(=O)(O)O)cc1)N[*:1])[*:2]].V.P.M.N.P.G}$$$$V2.0), the koff [1, 10] is reported as 4.5 ± 0.2 s⁻¹, the kon [1, 11] is reported as 1.2e+07 ± 1.4e+06 M⁻¹ s⁻¹ and the Kd [1, 12] is reported as 400 ± 100 nM. For the same compound, the koff [2, 10] was 7 ± 0.4 s⁻¹, the kon [2, 11] was 1.34e+07 ± 400000 M⁻¹ s⁻¹ and the Kd [2, 12] was 500 ± 100 nM. For the same compound, the koff [3, 10] was 18 ± 1 s⁻¹, the kon [3, 11] was 5.6e+06 ± 1.1e+06 M⁻¹ s⁻¹ and the Kd [3, 12] was 3200 ± 200 nM. For the same compound, the koff [4, 10] was 4.4 ± 0.2 s⁻¹, the kon [4, 11] was 1.6e+07 ± 1.2e+06 M⁻¹ s⁻¹ and the Kd [4, 12] was 300 ± 100 nM. The koff [5, 10] was 4.3 ± 0.2 s⁻¹, the kon [5, 11] was 1.75e+07 ± 500000 M⁻¹ s⁻¹ and the Kd [5, 12] was 300 ± 100 nM. For the same compound, the koff [6, 10] was 3.6 ± 0.2 s⁻¹, the kon [6, 11] was 2.26e+07 ± 2.4e+06 M⁻¹ s⁻¹ and the Kd [6, 12] was 200 ± 100 nM. For the same compound, the koff [7, 10] was 3.5 ± 0.2 s⁻¹, the kon [7, 11] was 1.65e+07 ± 200000 M⁻¹ s⁻¹ and the Kd [7, 12] was 200 ± 100 nM. The koff [8, 10] was 6.9 ± 0.3 s⁻¹, the kon [8, 11] was 9.1e+06 ± 1.1e+06 M⁻¹ s⁻¹ and the Kd [8, 12] was 800 ± 100 nM. For the same compound, the koff [9, 10] was 27 ± 1 s⁻¹, the kon [9, 11] was 4.87e+07 ± 1.5e+06 M⁻¹ s⁻¹ and the Kd [9, 12] was 600 ± 100 nM.
